{
  "source": "ChEMBL document CHEMBL2390878",
  "about": "“Novel 1H-imidazol-2-amine derivatives as potent and orally active vascular adhesion protein-1 (VAP-1) inhibitors for diabetic macular edema treatment” (Bioorg Med Chem, 2013)",
  "key": {"[1]": {"target": "T1, Amine oxidase [copper-containing] 3 (Rattus norvegicus, UniProt O08590)", "T1 sequence (O08590 whole entry)": "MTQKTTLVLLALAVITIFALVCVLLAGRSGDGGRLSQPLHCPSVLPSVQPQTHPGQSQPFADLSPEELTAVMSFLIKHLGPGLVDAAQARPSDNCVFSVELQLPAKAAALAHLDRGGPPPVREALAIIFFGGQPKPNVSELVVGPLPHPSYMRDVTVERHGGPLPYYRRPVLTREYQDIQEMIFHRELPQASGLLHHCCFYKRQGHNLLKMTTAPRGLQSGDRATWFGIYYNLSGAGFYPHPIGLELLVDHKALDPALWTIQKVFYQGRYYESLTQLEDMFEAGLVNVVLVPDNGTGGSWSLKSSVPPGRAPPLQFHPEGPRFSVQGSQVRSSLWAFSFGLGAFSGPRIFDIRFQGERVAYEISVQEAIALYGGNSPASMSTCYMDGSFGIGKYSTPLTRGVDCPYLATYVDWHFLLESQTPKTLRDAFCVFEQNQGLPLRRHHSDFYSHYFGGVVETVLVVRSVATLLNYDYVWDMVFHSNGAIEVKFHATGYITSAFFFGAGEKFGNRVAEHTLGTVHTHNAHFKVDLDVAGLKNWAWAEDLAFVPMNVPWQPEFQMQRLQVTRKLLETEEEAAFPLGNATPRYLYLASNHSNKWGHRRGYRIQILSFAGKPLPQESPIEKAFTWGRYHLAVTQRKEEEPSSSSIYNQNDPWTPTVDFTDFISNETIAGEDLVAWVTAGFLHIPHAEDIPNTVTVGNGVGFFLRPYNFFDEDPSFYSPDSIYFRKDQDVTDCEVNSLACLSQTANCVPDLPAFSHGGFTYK", "experiment": "Inhibition of rat VAP-1 expressed in CHO cells using [14C]-benzylamine as substrate preincubated for 30 mins prior to substrate addition measured after 1 hr by scintillation spectrometric analysis", "format": "cell-based"}, "[2]": {"target": "T2, Amine oxidase [copper-containing] 3 (Homo sapiens, UniProt Q16853)", "T2 sequence (Q16853 whole entry)": "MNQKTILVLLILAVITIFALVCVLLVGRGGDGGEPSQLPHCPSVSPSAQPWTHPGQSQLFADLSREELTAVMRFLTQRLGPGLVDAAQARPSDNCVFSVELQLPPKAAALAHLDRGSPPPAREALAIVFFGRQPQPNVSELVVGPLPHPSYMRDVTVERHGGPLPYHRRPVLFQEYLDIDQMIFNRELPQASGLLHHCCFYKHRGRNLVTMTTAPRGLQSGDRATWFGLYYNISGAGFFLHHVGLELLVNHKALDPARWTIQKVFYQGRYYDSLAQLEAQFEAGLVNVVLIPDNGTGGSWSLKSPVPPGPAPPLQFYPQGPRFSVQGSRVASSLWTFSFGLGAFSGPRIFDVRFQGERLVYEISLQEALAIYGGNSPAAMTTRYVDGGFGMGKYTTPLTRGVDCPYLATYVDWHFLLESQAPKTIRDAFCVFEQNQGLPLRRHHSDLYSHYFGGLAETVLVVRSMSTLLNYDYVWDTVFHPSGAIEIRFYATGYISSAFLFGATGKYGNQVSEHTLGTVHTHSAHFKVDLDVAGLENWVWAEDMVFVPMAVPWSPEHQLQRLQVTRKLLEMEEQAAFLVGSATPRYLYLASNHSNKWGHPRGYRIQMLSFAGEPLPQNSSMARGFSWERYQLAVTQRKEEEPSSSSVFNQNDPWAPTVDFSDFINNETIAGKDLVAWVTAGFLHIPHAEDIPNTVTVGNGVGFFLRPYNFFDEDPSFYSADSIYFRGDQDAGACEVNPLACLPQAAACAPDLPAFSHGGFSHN", "experiment": "Inhibition of human VAP-1 expressed in CHO cells using [14C]-benzylamine as substrate preincubated for 30 mins prior to substrate addition measured after 1 hr by scintillation spectrometric analysis", "format": "cell-based"}, "[3]": {"target": "T3, Amine oxidase [flavin-containing] B (Homo sapiens, UniProt P27338)", "T3 sequence (P27338 whole entry)": "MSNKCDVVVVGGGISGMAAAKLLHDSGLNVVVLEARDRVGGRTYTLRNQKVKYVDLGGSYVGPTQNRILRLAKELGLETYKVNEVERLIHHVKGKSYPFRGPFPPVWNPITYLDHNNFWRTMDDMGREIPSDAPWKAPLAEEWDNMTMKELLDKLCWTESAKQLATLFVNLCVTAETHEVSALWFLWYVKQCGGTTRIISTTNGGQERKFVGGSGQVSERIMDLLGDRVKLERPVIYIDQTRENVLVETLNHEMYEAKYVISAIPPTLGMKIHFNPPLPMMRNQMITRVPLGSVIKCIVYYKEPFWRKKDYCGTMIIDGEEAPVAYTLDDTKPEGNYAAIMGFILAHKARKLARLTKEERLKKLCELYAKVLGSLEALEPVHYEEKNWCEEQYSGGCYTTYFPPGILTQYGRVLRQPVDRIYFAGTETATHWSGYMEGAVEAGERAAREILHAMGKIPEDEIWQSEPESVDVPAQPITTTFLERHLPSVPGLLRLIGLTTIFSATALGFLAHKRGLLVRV", "experiment": "Inhibition of human recombinant MAO-B using benzylamine as substrate after 1 hr by fluorometric assay"}, "[4]": {"target": "T4, Amine oxidase [flavin-containing] A (Homo sapiens, UniProt P21397)", "T4 sequence (P21397 whole entry)": "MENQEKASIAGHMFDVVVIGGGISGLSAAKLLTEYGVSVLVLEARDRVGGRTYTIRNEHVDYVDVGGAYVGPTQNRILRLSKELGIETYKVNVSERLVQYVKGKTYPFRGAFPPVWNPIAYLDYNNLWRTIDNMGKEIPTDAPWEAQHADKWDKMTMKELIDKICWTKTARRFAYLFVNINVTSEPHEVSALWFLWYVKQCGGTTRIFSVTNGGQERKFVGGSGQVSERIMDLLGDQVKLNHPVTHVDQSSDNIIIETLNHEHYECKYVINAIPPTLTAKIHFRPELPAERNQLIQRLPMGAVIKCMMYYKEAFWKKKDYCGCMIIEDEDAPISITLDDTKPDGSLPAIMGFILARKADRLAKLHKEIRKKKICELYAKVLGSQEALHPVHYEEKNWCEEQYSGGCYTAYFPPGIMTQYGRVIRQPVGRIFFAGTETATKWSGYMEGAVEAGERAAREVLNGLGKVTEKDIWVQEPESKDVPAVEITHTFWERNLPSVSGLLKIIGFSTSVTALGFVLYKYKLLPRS", "experiment": "Inhibition of human recombinant MAO-A using 5-hydroxytryptamine as substrate after 1 hr by fluorometric assay"}, "[5]": {"test_system": "Rattus norvegicus", "experiment": "Inhibition of VAP-1 in streptozotocin-induced diabetic Sprague-Dawley rat plasma using [14C]-benzylamine as substrate at 10 mg/kg, po administered for 2 weeks after streptozotocin-challenge by scintillation spectrometric analysis", "format": "functional, organism-based", "parameters": "dose 10 mg/kg"}, "[6]": {"organism": "Homo sapiens", "experiment": "Selectivity ratio of IC50 for human recombinant MAO-B to IC50 for human VAP-1"}, "[7]": {"organism": "Homo sapiens", "experiment": "Selectivity ratio of IC50 for human recombinant MAO-A to IC50 for human VAP-1"}, "[8]": {"test_system": "Rattus norvegicus", "experiment": "Inhibition of ocular permeability in streptozotocin-induced diabetic Sprague-Dawley rat at 10 mg/kg, po administered for 2 weeks after streptozotocin-challenge measured 24 hrs after final administration of compound", "format": "functional, organism-based", "parameters": "dose 10 mg/kg", "details": "Eye"}},
  "note": "Calls of active or inactive are those of the source. No cut-off for these calls is given here.",
  "data": [
    {"smiles": "c1ccc(NC2=NCCN2)cc1", "values": [
      {"measurement": "IC50", "setting": "[1]", "result": "> 100", "unit": "µM"},
      {"measurement": "IC50", "setting": "[2]", "result": "> 100", "unit": "µM"}
    ]},
    {"smiles": "CC(=O)Nc1nc(CCc2ccc(NC(=N)N)cc2)cs1", "values": [
      {"measurement": "IC50", "setting": "[3]", "result": 60, "unit": "µM"},
      {"measurement": "IC50", "setting": "[4]", "result": "> 100", "unit": "µM"}
    ]},
    {"smiles": "Nc1ncc(CCc2ccccc2)[nH]1", "values": [
      {"measurement": "IC50", "setting": "[1]", "result": 4.8, "unit": "µM"},
      {"measurement": "IC50", "setting": "[2]", "result": "> 100", "unit": "µM"}
    ]},
    {"smiles": "Cc1ccc2nc(N)[nH]c2c1", "values": [
      {"measurement": "IC50", "setting": "[1]", "result": 9.3, "unit": "µM"},
      {"measurement": "IC50", "setting": "[2]", "result": "> 100", "unit": "µM"}
    ]},
    {"smiles": "N=C(N)Nc1ccccc1", "note": "[PHENYLGUANIDINE]", "values": [
      {"measurement": "IC50", "setting": "[1]", "result": 78, "unit": "µM"},
      {"measurement": "IC50", "setting": "[2]", "result": "> 100", "unit": "µM"}
    ]},
    {"smiles": "CC(=O)Nc1nc(CCc2ccc(Cc3c[nH]c(N)n3)cc2)cs1", "values": [
      {"measurement": "inhibition", "setting": "[5]", "result": "Active"},
      {"measurement": "Ratio IC50", "setting": "[6]", "result": "> 580"},
      {"measurement": "IC50", "setting": "[3]", "result": 11, "unit": "µM"},
      {"measurement": "Ratio IC50", "setting": "[7]", "result": "> 580"},
      {"measurement": "IC50", "setting": "[1]", "result": 0.0051, "unit": "µM"},
      {"measurement": "IC50", "setting": "[4]", "result": "> 100", "unit": "µM"},
      {"measurement": "IC50", "setting": "[2]", "result": 0.019, "unit": "µM"},
      {"measurement": "inhibition", "setting": "[8]", "result": "Active"}
    ]},
    {"smiles": "Nc1cc2ccccc2[nH]1", "values": [
      {"measurement": "IC50", "setting": "[1]", "result": 63, "unit": "µM"},
      {"measurement": "IC50", "setting": "[2]", "result": "> 100", "unit": "µM"}
    ]},
    {"smiles": "NC1=NCCN1c1ccccc1", "values": [
      {"measurement": "IC50", "setting": "[1]", "result": "> 100", "unit": "µM"},
      {"measurement": "IC50", "setting": "[2]", "result": "> 100", "unit": "µM"}
    ]},
    {"smiles": "CC(=O)Nc1nc(CCc2ccc(CCc3c[nH]c(N)n3)cc2)cs1", "values": [
      {"measurement": "IC50", "setting": "[1]", "result": 0.018, "unit": "µM"},
      {"measurement": "IC50", "setting": "[2]", "result": 2.2, "unit": "µM"}
    ]},
    {"smiles": "CC(=O)Nc1nc(CCc2ccc(-c3c[nH]c(N)n3)cc2)cs1", "values": [
      {"measurement": "IC50", "setting": "[1]", "result": 0.15, "unit": "µM"},
      {"measurement": "IC50", "setting": "[2]", "result": 13, "unit": "µM"}
    ]},
    {"smiles": "Nc1nc(Cc2ccccc2)c[nH]1", "values": [
      {"measurement": "IC50", "setting": "[1]", "result": 0.42, "unit": "µM"},
      {"measurement": "IC50", "setting": "[2]", "result": 32, "unit": "µM"}
    ]},
    {"smiles": "Cn1c(N)nc2ccccc21", "values": [
      {"measurement": "IC50", "setting": "[1]", "result": 80, "unit": "µM"},
      {"measurement": "IC50", "setting": "[2]", "result": "> 100", "unit": "µM"}
    ]},
    {"smiles": "Nc1nc(-c2ccccc2)c[nH]1", "values": [
      {"measurement": "IC50", "setting": "[1]", "result": 44, "unit": "µM"},
      {"measurement": "IC50", "setting": "[2]", "result": "> 100", "unit": "µM"}
    ]},
    {"smiles": "Cc1cccc2[nH]c(N)nc12", "values": [
      {"measurement": "IC50", "setting": "[1]", "result": 1, "unit": "µM"},
      {"measurement": "IC50", "setting": "[2]", "result": "> 100", "unit": "µM"}
    ]},
    {"smiles": "NCc1nc2ccccc2[nH]1", "values": [
      {"measurement": "IC50", "setting": "[1]", "result": "> 100", "unit": "µM"},
      {"measurement": "IC50", "setting": "[2]", "result": "> 100", "unit": "µM"}
    ]},
    {"smiles": "Nc1nc2ccccc2[nH]1", "values": [
      {"measurement": "IC50", "setting": "[1]", "result": 1, "unit": "µM"},
      {"measurement": "IC50", "setting": "[2]", "result": 4.1, "unit": "µM"}
    ]},
    {"smiles": "Nc1ncc[nH]1", "values": [
      {"measurement": "IC50", "setting": "[1]", "result": 90, "unit": "µM"},
      {"measurement": "IC50", "setting": "[2]", "result": "> 100", "unit": "µM"}
    ]},
    {"smiles": "c1ccc2[nH]cnc2c1", "note": "[BENZIMIDAZOLE]", "values": [
      {"measurement": "IC50", "setting": "[1]", "result": "> 100", "unit": "µM"},
      {"measurement": "IC50", "setting": "[2]", "result": "> 100", "unit": "µM"}
    ]}
  ]
}
